Experimental data reported in patent US10124035B2, “DISC-1 pathway activators in the control of neurogenesis” (Massachusetts Institute of Technology, priority 2008, dated 2018).
Entries after “also recorded” stand apart in the source; their conditions may differ.

Experiments:
[1] = tested on: adult progenitor proliferation in dentate gyrus; experiment: Adult progenitor proliferation in dentate gyrus (BrdU) after lentivirus injection; type: in vivo
Text: Cell positioning and BrdU incorporation defects caused by DISC1 loss-of-function are rescued by human WT-DISC1 or SA-β-catenin. The percentage of GFP positive cells in the SVZ/VZ or CP is shown (n=5, **, p<0.01; ***, p<0.005). Scale bar=20 μm. b. The reduction in mitotic index caused by DISC1 knockdown in embryonic brains is rescued by human WT-DISC1 or SA-β-catenin. Arrows indicate GFP and pH3 double positive cells. Shown is the percentage of GFP and pH3 double positive cells in total GFP positive cells (n=4, *, p<0.05; ***, p<0.005). Scale bar=20 μm. c. Control or DISC1 shRNA-1 lentivirus was stereotactically injected into adult dentate gyms. After 4 weeks of recovery, mice received SB216763 (2 mg/kg) every other day for 2 weeks and BrdU (100 mg/kg) daily for 7 days. The GFP signal represents lentiviral infected cells in dentate gyms. Scale bar=50 μm. d. […] The percentage of GFP and BrdU double positive cells is shown (n=5, *, p<0.05; **, p<0.01; ***, p<0.005; ns, not significant). Scale bar=10 μm.
• Mice. Swiss Webster pregnant female mice were purchased from Taconic (Hudson, N.Y.). • Cell Culture. AHPs were kindly provided by Dr. Gage (Lie, D. C. et al. Wnt signaling to regulates adult hippocampal neurogenesis. Nature 437, 1370-5 (2005)) and cultured under conditions described previously (Palmer, T. D., Takahashi, J. & Gage, F. H. The adult rat hippocampus contains primordial neural stem cells. Mol Cell Neurosci 8, 389-404 (1997)). Primary neural progenitors were isolated from E14 mouse embryos and cultured as described previously (Sanada, K. & Tsai, L. H. G protein betagamma subunits and AGS3 control spindle orientation and asymmetric cell fate of cerebral cortical progenitors. Cell 122, 119-31 (2005)). N2a and 293T cells were cultured in DMEM medium containing 10% FBS, L-glutamine, and penicillin/streptomycin. Wnt3a expressing L cells and untransfected L cells were obtained from ATCC (Manassas, Va.). Wnt3a conditional medium was produced according to the ATCC protocol. To induce AHP differentiation, FGF2 was removed from the culture medium and 1 μM retinoic acid/1% FBS was added to the medium for 4 days. • Reagents. Recombinant Wnt3a protein was obtained from Chemicon (Rosemont, Ill.). FGF2 was obtained from PeproTech (Rocky Hill, N.J.). Recombinant GST-GSK3β was obtained from Active Motif (Carlsbad, Calif.). Recombinant GST-β-catenin and GST-axin were obtained from Millipore (Billerica, Mass.). The GSK313 inhibitor, SB-216763, AR-A104418 and His-GSK3β, were obtained from Sigma-Aldrich (Sigma-Aldrich, St. Louis, Mo.). L803-MTS was obtained from Calbiochem (San Diego, Calif.). GST-AKT1 was obtained from Cell Signaling (Beverly, Mass.). […]

[2] = tested on: DISC1 shRNA injected mice; experiment: Open Field test (hyperlocomotion in response to novelty); type: in vivo, mouse; conditions: for hyperlocomotion/hyperactivity in novel open field: DISC1 shRNA injected mice, SB-216763 2 mg/kg i.p.
Description: (§1) Behavioral abnormalities in DISC1 knockdown mice. a. DISC1 knockdown in adult dentate gyms caused increased hyperactivity in the Open Field Test. b and c. DISC1 knockdown in adult dentate gyms caused depressive-like behavior in the Forced Swimming test and the Novelty Suppression Feeding experiment. b. Forced Swimming Test Mice were put in the beaker with water for 6 minutes and counted the last 4 minutes for the time of immobility. c. Novelty Suppression Feeding Test. Mice were restricted with food for 48 hours and tested for the motivation to eat food. Mice were tested the latency for first bite, the time they spent on food, and the time they ate during 5 minutes. d. […] Mice were injected and allowed to recover for 2 weeks, then treated with the GDK3beta inhibitor SB216763 at 2 mg/kg/day for two weeks, after that the behavioral test was performed.
Alterations in neurogenesis are implicated in the development of depression and other abnormal behaviors. To examine the behavioral consequences of disrupting the DICS1/GSK3β pathway, we silenced DISC1 expression in the adult dentate gyms and evaluated behavioral consequences. Four weeks after the injection of control or DISC1 shRNA-1 lentivirus, mice were treated with vehicle or SB-216763 (2 mg/kg i.p.) every other day for 10 days. […] DISC1 shRNA injected mice traveled a greater distance and spent more time moving in a novel open field than control mice (FIG. 17A). These behaviors were normalized by SB-216763 treatment. We further tested whether DISC1 loss-of-function had consequences on depression-like behavior in the forced swim test. […] Importantly, swimming velocity was unchanged. […] Thus, increased GSK3β activity caused by DISC1 loss-of-function is associated with schizophrenia- and depression-like behaviors.

[3] = tested on: DISC1 shRNA infected mice; experiment: Forced swim test; type: in vivo, mouse
Description: as §1
Alterations in neurogenesis are implicated in the development of depression and other abnormal behaviors. To examine the behavioral consequences of disrupting the DICS1/GSK3β pathway, we silenced DISC1 expression in the adult dentate gyms and evaluated behavioral consequences. Four weeks after the injection of control or DISC1 shRNA-1 lentivirus, mice were treated with vehicle or SB-216763 (2 mg/kg i.p.) every other day for 10 days. […]

[4] = lentivirus in adult dentate gyrus, compared to control mice

Compound	BrdU positive cells in dentate gyrus ([1]; DISC1 shRNA-1 infected mice, SB216763 2 mg/kg for 2 weeks, 2 mg/kg)	number of BrdU positive cells in dentate gyrus ([1]; mice infected with control virus, SB216763 2 mg/kg for 2 weeks)	hyperlocomotion/hyperactivity in novel open field ([2]; 2 mg/kg)	hyperlocomotion/hyperactivity in novel open field ([2]; listed as SB216763, 2 mg/kg)	immobility in forced swim test ([3]; DISC1 shRNA infected mice, SB-216763 2 mg/kg i.p.)	active caspase 3 labeling in GFP positive cells in the dentate gyrus ([1]; lentivirus injected adult mice)	BrdU incorporation in adult dentate gyrus ([1]; lentivirus injected, compared to control shRNA cells)	locomotion in novel open field [2, 4]	immobility in forced swim test [3, 4]
Cn1cc(C2=C(c3ccc(Cl)cc3Cl)C(=O)NC2=O)c2ccccc21 [SB-216763]	no longer exhibited a reduction in BrdU positive cells; also recorded: can be rescued	significantly increased the number of BrdU positive cells	normalized	can be rescued	suppressed	–	–	–	–
DISC1 shRNA-1: shRNA targeting rat and mouse DISC1, SEQ ID NO:4, in pLentiLox 3.7 vector (GGCAAACACTGTGAAGTGC)	–	–	–	–	–	no increase in active caspase 3 labeling	significant reduction in BrdU incorporation	hyperlocomotion in response to novelty	greater immobility
